{"source": "patent US20140057908A1", "about": "“Method of Treating Cancer” (Exelixis, Inc., priority 2010, published 2014)", "key": {"[1]": {"tested_on": "xenograft tumor models", "experiment": "xenograft tumor models", "details": "in vivo"}, "[2]": {"tested_on": "castration-resistant prostate cancer (CRPC) with bone metastases", "experiment": "adaptive phase 2 trial (NCT00940225), case studies of the first three CRPC patients with bone metastases", "assay_type": "in vivo, human", "details": "for Bone scan (best response) / PSA (best response) / tALP (best response) / Hemoglobin (best response): 100 mg dose; for Hemoglobin (best response): change from baseline; for PSA: Week 18", "description": "All patients provided informed consent before study screening."}, "[3]": {"tested_on": "pancreatic neuroendocrine tumor", "experiment": "murine pancreatic neuroendocrine tumor model", "details": "mouse, in vivo"}, "[4]": {"experiment": "gravimetric vapor sorption (GVS) study", "assay_type": "physicochemical", "details": "crystalline form; 25° C. and 90% humidity", "experimental": "A gravimetric vapor sorption (GVS) study was run using a standard procedure. Samples were run on a dynamic vapor sorption analyzer (Surface Measurement Systems) running DVSCFR software. Sample sizes were typically 10 mg. A moisture adsorption desorption isotherm was performed as outlined below. The standard isotherm experiment, performed at 25° C., is a two-cycle run, starting at 40% RH, increasing humidity to 90% RH, decreasing humidity to 0% RH, increasing humidity again to 90% RH, and finally decreasing humidity to 0% RH in 10% RH intervals."}}}
{"smiles": "COc1cc2nccc(Oc3ccc(NC(=O)C4(C(=O)Nc5ccc(F)cc5)CC4)cc3)c2cc1OC", "note": "[Compound 1, N-(4-{[6,7-bis(methyloxy)quinolin-4-yl]oxy}phenyl)-N′-(4-fluorophenyl)cyclopropane-1,1-dicarboxamide]", "values": [{"measurement": "effect on tumors in xenograft tumor models", "setting": "[1]", "result": "causes tumor regression"}, {"measurement": "Bone scan (best response)", "setting": "[2]; Patient 1", "result": "Complete"}, {"measurement": "PSA (best response)", "setting": "[2]; Patient 1", "result": "−78", "unit": "%"}, {"measurement": "tALP (best response)", "setting": "[2]; Patient 1", "result": "−77", "unit": "%"}, {"measurement": "Hemoglobin (best response)", "setting": "[2]; Patient 1", "result": "+1.4 g/dL"}, {"measurement": "CT scan response", "setting": "[2]; Patient 1, Week 6", "result": "partial response (PR)"}, {"measurement": "decrease in measurable target lesions (CT scan)", "setting": "[2]; Patient 1, Week 6", "result": 33, "unit": "%"}, {"measurement": "PSA", "setting": "[2]; Patient 1, baseline 430 ng/mL", "result": 93.5, "unit": "ng/mL"}, {"measurement": "PSA (best response)", "setting": "[2]; Patient 2", "result": "+61%"}, {"measurement": "tALP (best response)", "setting": "[2]; Patient 2", "result": "−6", "unit": "%"}, {"measurement": "Hemoglobin (best response)", "setting": "[2]; Patient 2", "result": "+1.8 g/dL"}, {"measurement": "decrease in target lesions (CT scan)", "setting": "[2]; Patient 2, Week 6", "result": 13, "unit": "%"}, {"measurement": "Bone scan (best response)", "setting": "[2]; Patient 3", "result": "Near resolution"}, {"measurement": "PSA (best response)", "setting": "[2]; Patient 3", "result": "−57", "unit": "%"}, {"measurement": "tALP (best response)", "setting": "[2]; Patient 3", "result": "−77", "unit": "%"}, {"measurement": "Hemoglobin (best response)", "setting": "[2]; Patient 3", "result": "+2.2 g/dL"}, {"measurement": "decrease in measurable target lesions (CT scan)", "setting": "[2]; Patient 3, Week 6", "result": 43, "unit": "%"}, {"measurement": "PSA", "setting": "[2]; Patient 3, 2.4 ng/mL at screening", "result": 1.2, "unit": "ng/mL"}, {"measurement": "bone lesions, summary of three metastatic CRPC patients", "setting": "[2]; all three patients", "result": "near complete resolution of bone lesions"}, {"measurement": "uptake of radiotracer on bone scan, summary", "setting": "[2]; all three patients", "result": "striking decrease in uptake of radiotracer on bone scan"}, {"measurement": "overall survival", "setting": "[3]", "result": "substantially improves overall survival"}, {"measurement": "tumor invasiveness and metastasis", "setting": "[3]", "result": "significantly reduces tumor invasiveness and metastasis"}]}
{"smiles": "COc1cc2c(Oc3ccc(NC(=O)C4(C(=O)Nc5ccc(F)cc5)CC4)cc3F)ccnc2cc1OCCCN1CCOCC1", "note": "[Compound 2, N-[3-fluoro-4-({6-(methyloxy)-7-[(3-morpholin-4-ylpropyl)oxy]quinolin-4-yl}oxy)phenyl]-N′-(4-fluorophenyl)cyclopropane-1,1-dicarboxamide]", "values": [{"measurement": "weight gain (GVS)", "setting": "[4]", "result": 2.5, "unit": "%"}, {"measurement": "effect on tumors in xenograft tumor models", "setting": "[1]", "result": "causes tumor regression"}, {"measurement": "overall survival", "setting": "[3]", "result": "substantially improves overall survival"}, {"measurement": "tumor invasiveness and metastasis", "setting": "[3]", "result": "significantly reduces tumor invasiveness and metastasis"}]}
